# “And” between values parts separate entries of the source, which are not always exact repeats. Equal values may be shown once. “Also recorded” adds a separate entry of the source.
# Legend:
# human NNMT (mt-hNNMT) = molecular target: T1, human NNMT (mt-hNNMT) (Homo sapiens, UniProt P40261, E101A/E103A/K100A); experiment: NNMT activity assay (HPLC-UV detection of MNA), NNMT IC50 curves; conditions: NNMT IC50
# T1 sequence (P40261 1-261 K100A/E101A/E103A limits assumed): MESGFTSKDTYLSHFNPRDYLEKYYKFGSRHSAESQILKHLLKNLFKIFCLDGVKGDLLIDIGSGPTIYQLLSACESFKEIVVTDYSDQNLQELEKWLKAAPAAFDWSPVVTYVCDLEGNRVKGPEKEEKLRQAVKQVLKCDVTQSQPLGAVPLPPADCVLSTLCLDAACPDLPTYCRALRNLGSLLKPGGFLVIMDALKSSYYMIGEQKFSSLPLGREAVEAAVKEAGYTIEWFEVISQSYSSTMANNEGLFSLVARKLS
# [1] = molecular target: recombinant human PRMT3 enzyme (Homo sapiens, UniProt O60678); experiment: PRMT3 activity assay (radiometric); assay type: biochemical; conditions: 10 nM to 200 μM (1,8-diMQ) or 600 μM (5-amino-1MQ)
# Description: Test compounds were screened in biochemical assays for activity against three structurally similar methyltransferases, including catechol-O-methyltransferase (COMT), DNA (cytosine-5)-methyltransferase 1 (DNMT1), and protein arginine methyltransferase 3 (PRMT3). Additional biochemical assays were used to test the ability of compounds to inhibit nicotinamide phosphoribosyl transferase (NAMPT) and NAD+-dependent protein deacetylase sirtuin 1 (SIRT1), two enzymes in the NAD+ biosynthesis/salvage pathway. All assays were performed by Reaction Biology Corporation (RBC; Malvern, Pa., USA) and complete assay details are noted below. For each test compound, IC50 values were calculated from dose-response curves established with 10 concentrations of a half-log dilution series. For each assay, established enzyme specific inhibitors were included as positive controls for enzyme function and assay reproducibility. IC50 values were determined by non-linear least-squares fitting of a 4-parameter dose-response curve to collected data points (Graphpad Prism 7.0; La Jolla, Calif., USA).
# PRMT3 activity assay. […] The analogues, 1,8-diMQ and 5-amino-1MQ were tested at concentrations from 200 μM-10 nM and 600 μM-10 nM, respectively. Reactions were performed with 5 μM histone H3 (histone L-arginine) substrate, 1 μM radiolabeled S-adenosyl-L-[methyl-3H]methionine (SAM) co-substrate, and recombinant human PRMT3 enzyme. Activity was monitored via quantification of radiolabeled reaction product histone [methyl-3H]-L-arginine.
# [2] = system: diet-induced obese (DIO) mice; assay type: in vivo
# Protocol: 17-week old, male DIO C57Bl/6 mice that have been fed high-fat diet (HFD) for 11 weeks (starting at week 6) were purchased from Jackson Labs (Jackson Laboratory; Bar Harbour, Me., USA). Mice were initially group housed (three/cage) and allowed to acclimate to the colony environment maintained at a constant temperature (21-23° C.) and humidity (40-50%) on a 12-hour light-dark cycle (lights on 0600-1800 h). Upon arrival, mice were continued to be fed HFD (Open Source Diets formula D12451 from Research Diets Inc.; New Brunswick, N.J., USA), containing 45% energy from fat. Water was available ad libitum.
# All experiments were carried out in accordance with the Guide for the Care and Use of Laboratory Animals and with approval from the Institutional Animal Care and Use Committee at the University of Texas Medical Branch. Following acclimation for seven days, mice were single-housed and maintained on HFD for 4 additional weeks. Mice were intermittently handled, with body weights and food intake (hopper weights) measured 2-3 times per week. […] Mice in the vehicle cohort received three subcutaneous (SC) saline (1 ml/kg) injections/day (˜0930, 1330, 1730 h) and mice in the treatment cohort received three SC injections of the NNMT inhibitor 5-amino-1MQ at a dose of 20 mg/kg/injection for a total dose of […] of the parent compound (calculated according to free weight) for 11 days. […] Body weight and food intake were measured every other day. On day 12, mice were subjected to a 4 h fast period, then deeply anesthetized using isoflurane and trunk blood was collected by decapitation. Plasma was separated from every sample and the samples were submitted to Texas A&M Veterinary Medical Diagnostic Laboratory (TVMDL; College Station, Tex., USA) for plasma lipid-panel measurements (total cholesterol and triglycerides). Triglycerides values were not included for analysis since the measurements were confounded by sample hemolysis that interfered with the triglyceride reagent in the assay. Epididymal fat pads (epididymal white adipose tissue; EWAT) were excised from every mouse, weighed, and fixed in 10% buffered formalin for further processing.
# Formalin-fixed EWAT samples were paraffin embedded, sectioned ([…]), and stained with hematoxylin and eosin (H&E). Images were obtained at 20× magnification using a light microscope (Leica DM LB) and digitally photographed for automated image analysis. Images were analyzed using the “Adiposoft” plug-in software in ImageJ (NIH). […]. Minimum and maximum diameter parameters were assigned to identify appropriate cells for the automated adipocyte area calculations, and cells along the boundary of the images were excluded from analyses. Three to five images/sample were analyzed, with automated analysis confirmed by visual inspection. Images corresponding to each sample were averaged to obtain the mean adipocyte area (μm2) per sample and combined to calculate group mean values for control (vehicle-treated EWAT samples) and treatment (NNMT inhibitor-treated EWAT samples) cohorts.
# [3] = system: 3T3-L1 pre-adipocytes cells; experiment: MTT cell viability assay; assay type: cell-based
# Protocol: Cells were treated for 24 h with 0.1-600 μM NNMT inhibitors in cell culture media. A 24 h time point was chosen based on a previous report of using this time period for transfecting or treating 3T3-L1 cells with NNMT anti-sense oligonucleotides or a small molecule NNMT product inhibitor (1-MNA), respectively, for phenotypic measures. MTT (3-(4,5-dimethylthiazol-2-yl)-2,5-diphenyltetrazolium bromide) (ATCC; Manassas, Va., USA) was added to each well and assayed according to the manufacturer's instructions. Absorbance corresponding to the amount of formazan dye produced by treated cells was normalized to that produced by control (untreated) cells to calculate % viable cells in the treated samples.
# [4] = Parallel artificial membrane permeability assay (PAMPA); assay type: in vitro ADME
# Protocol: Samples were tested in triplicates in three separate experiments.
# [5] = DIO mice, 20 mg/kg SC t.i.d., 11 days
# Sequence of recombinant human PRMT3 enzyme (O60678 whole entry): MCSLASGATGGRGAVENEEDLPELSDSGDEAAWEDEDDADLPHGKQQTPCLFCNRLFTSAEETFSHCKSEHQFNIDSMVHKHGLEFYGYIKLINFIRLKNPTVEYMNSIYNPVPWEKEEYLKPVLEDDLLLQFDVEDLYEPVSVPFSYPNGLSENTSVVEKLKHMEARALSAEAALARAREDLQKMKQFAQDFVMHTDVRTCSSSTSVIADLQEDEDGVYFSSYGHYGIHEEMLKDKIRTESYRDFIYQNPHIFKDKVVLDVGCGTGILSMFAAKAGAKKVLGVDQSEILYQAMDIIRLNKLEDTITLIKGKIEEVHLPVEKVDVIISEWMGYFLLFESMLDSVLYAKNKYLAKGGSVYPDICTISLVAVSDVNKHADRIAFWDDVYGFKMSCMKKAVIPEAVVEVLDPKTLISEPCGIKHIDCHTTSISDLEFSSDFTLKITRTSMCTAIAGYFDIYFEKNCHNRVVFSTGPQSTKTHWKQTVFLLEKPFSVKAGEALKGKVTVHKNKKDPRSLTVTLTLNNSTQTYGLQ
smiles,measurement,setting,value
"C[n+]1cccc2c(N)cccc21 [1j, 5-amino-1-methylquinolin-1-ium iodide]",IC50,human NNMT (mt-hNNMT),1.2 µM and ~1 µM
same,inhibition of PRMT3 (in words),[1],did not inhibit
same,decrease in mass of EWAT compared with control DIO mice,[2]; [5],~35%
same,total cumulative food intake,[2]; [5],26.2 ± 1.4 g
same,weight loss at end of treatment,[2]; [5],2.0 ± 0.6 g
same,weight loss from baseline measures,[2]; [5],~5.1%
same,body weight over treatment period compared to controls (in words),"[2]; DIO mice, 20 mg/kg SC three times daily, 11 days",progressive loss of body weight
same,decrease in adipocyte size compared to control DIO mice,"[2]; EWAT histology, 20 mg/kg SC t.i.d., 11 days",> 30%
same,decrease in adipocyte volume compared to control DIO mice,"[2]; EWAT histology, data not shown",> 40%
same,tolerability in dose escalation study,"[2]; mouse, in vivo, 60 mg/kg/day",well tolerated with no observable adverse effects
same,total cholesterol levels lower relative to control DIO mice,"[2]; plasma, 4 h fast, day 12",~30%
same,cell viability,"[3]; 3T3-L1 pre-adipocytes, 10 μM, 24 h",did not impact cell viability
same,cytotoxicity,"[3]; 3T3-L1 pre-adipocytes, 600 μM (highest concentration tested), 24 h",~40%
same,cytotoxicity relative to untreated cells,"[3]; 3T3-L1 pre-adipocytes, 100-300 μM, 24 h",modest cytotoxicity
same,3T3-L1 cell viability compared to untreated,[3]; highest tested concentration (0.1-60 μM range),only slightly reduced
same,"Papp at 4 h, 400 μM","[4]; 400 μM in PBS, 4 h, room temperature, read-out: Flux",3.01 ×10⁻⁶ cm/s
same,Permeability Classification (passive transport),"[4]; BCS classification, listed as 5-amino-1MQ",high passive and active transport; also recorded: High permeability
